Source: US10292992B2, “Selective high-affinity polydentate ligands and methods of making such” (LAWRENCE LIVERMORE NATIONAL SECURITY, LLC, priority 2008, dated 2019)
“Also recorded” adds a separate entry of the source.

Experiments:
[1] = tested on: Raji cells; assay: 3-D confocal microscopy, Raji cells; format: cell-based, human; details: biotinylated reagent, 1 hr; 10 μM SHAL or 10 nM chLym-1; listed as parent SHAL
Description: SHAL binding and internalization by Raji and Jurkat's cells was assessed using the method described previously by O'Donnell et al. (O'Donnell et al. (1998) Prostate 37:91-97). Experiments were conducted comparing the binding of (DvLPBaPPP)2LLDo (the parent SHAL), its hexa-arginine analog (DvLPBaPPP)2LArg6AcLLDo, and chimeric Lym-1 (chLym-1) to Raji cells. All steps were performed at 20° C., unless indicated.
Four million Raji cells (>92% viability) in log phase growth were pelleted at 300×g, washed, and blocked for 30 min in 1 ml of 1% fraction V BSA in PBS, with constant rotation. Cells were then incubated 1 hr, at 1 million per 250 μl, with either 1% BSA in PBS or a biotinylated primary reagent: 10 nM chLym-1, 10 μM parent SHAL, or 10 μM hexa-arginine SHAL. After four washes (two in 1% BSA in PBS, two in PBS), 50 μl of the cell suspensions was applied to freshly poly-L-Lysine coated slides, and cells were allowed to adhere for 10 min in a humid chamber. Fixation and permeabilization were performed at −20° C. by using a 4 min exposure to methanol. Jurkat's cells were treated in the same manner as a control.
Slides were then washed twice in PBS and blocked in 10% fetaplex serum (Gemini Bioproducts, West Sacramento, Calif.) in PBS for 15 min and washed once in PBS. The detection reagent, Streptavidin AlexaFluor 610 (Invitrogen, Carlsbad, Calif.) was diluted 1/500 in diluent, 100 μl was applied; a parafilm cover slip was layered over the solution to prevent evaporation. The slides were incubated in a humid chamber for 30 min., washed 5 times for 5 min each in PBS, and rinsed briefly in double distilled H2O. After the slides dried, cover slips were mounted with ProlongGold with 4′,6-diamidino-2-phenylindole (DAPI, Invitrogen, Carlsbad, Calif.). The slides were viewed with an Olympus FV1000 laser scanning confocal microscope and data were collected as Z-scans at 160×, with focal sections being taken 1 μm apart through the cell.

[2] = tested on: Raji cells expressing HLA-DR10; assay: Whole cell binding assay with 111In-labeled SHAL; format: cell-based, human
Description: Raji human Burkitt's lymphoma B-cells (American Type Culture Collection, Manassas, Va.) were maintained in RPMI-1640 media supplemented with 10% fetal bovine serum, 2mM L-glutamine, 1 mM sodium pyruvate, 1% of a solution of nonessential amino acids (GIBCO #11140-050), and 100 units/ml of Penicillin G, 100 μg/ml Streptomycin, and 0.25 μg/ml of Amphotericin B at 37° C. in a humidified 5% CO2 atmosphere. Jurkat's cells (American Type Culture Collection, Manassas, Va.), an acute leukemia T-cell line, were maintained in the same medium with the addition of 10 mM 4-(2-hydroxyethyl)-1-piperazineethanesulfonic acid (HEPES).
A series of experiments were conducted to quantify the uptake of the ^111In-labeled parent SHAL (DvLPBaPPP)2LLDo and its hexa-arginine analog (DvLPBaPPP)2LArg6AcLLDo by Raji cells, a cell line that has been previously shown to express the HLA-DR10 variant. The assays were conducted using aliquots containing 10^6 cells suspended in 150 μl of PBS with 5% bovine serum albumin (BSA). Aliquots of cells were treated with 0.1, 1, 5, 10 or 25 ng of ^111In-labeled (DvLPBaPPP)2LLDo or (DvLPBaPPP)2LArg6AcLLDo for one hour at both 4° C. and 22° C. The tubes containing the treated cells were centrifuged to separate the cell pellet from the supernatant and the two fractions were counted in a calibrated gamma well counter to determine the amount of bound and free SHAL. Half of the cell pellets were washed twice with PBS and incubated at 22° C. for 15 min before centrifuging them again. The pooled washes and washed cell pellets were subsequently counted in the gamma well counter to assess how much of the bound SHAL could be removed by washing.
In vitro cell binding experiments were conducted using ^111In-labeled parent SHAL and the hexa-arginine SHAL analog to quantify SHAL uptake and to evaluate the effect of adding the hexa-arginine tag. Uptake was assessed using Raji cells, a lymphoma cell line expressing HLA-DR10. Aliquots containing 10^6 cells were incubated with increasing amounts of SHAL containing ^111In labeled SHAL as a tracer, and cell-associated ^111In was measured before and after washing the cell pellets.

[3] = molecular target: HLA-DR10 protein; assay: Surface plasmon resonance binding of SHALs to isolated HLA-DR10 protein; parameters: species or system human; details: biotinylated versions of the SHALs immobilized on streptavidin chip; HLA-DR10 isolated from Raji cells
Description: In certain embodiments, the binding affinities of the best SHALs can be estimated by mass spectrometry of the SHAL-target complexes, followed by a more accurate surface plasmon resonance (SPR) spectroscopy (Shuck (1997) Annu Rev Biophys Biomol Struct., 26: 541-566; Van Regenmortal (2001) Cell Mol Life Sci., 58: 794-800) measurement of the SHAL-target binding affinity using for example, the IASYS Plus or BiaCore instruments. In order to perform the SPR measurement, biotin can be added to the linker through a third functional group (as described above) and the SHAL can be bound to commercially available streptavidin coated chips. […] Experiments can be performed to test the selectivity of SHAL binding to targets in the presence of molecules related to the targets. Thus, for example, where the SHAL is directed to HLA-DR10, the SHAL can be evaluated for its ability to bind target molecules in the presence of Raji cell surface proteins extracted and separated by affinity chromatography. After treating the gel with the biotinylated SHAL and rinsing out excess unbound SHAL, the location of the bound SHAL can be detected by staining with Rhodamine tagged streptavidin.
Protein binding experiments were conducted using surface plasma resonance on a Biacore 3000 (Biacore, Piscataway, N.J.) at 25° C. A research grade streptavidin immobilized chip (SA chip, Biacore) was preconditioned and normalized according to the manufacturers instructions. Biotin labeled SHALs were dissolved in DMSO and diluted in 1.05×PBS (Biacore) to a final concentration of 1×PBS pH 7.4, 5% DMSO, to match the running buffer. These SHALs were injected over the flow cell to yield a surface density of 500-1000RU (response units). Biotin (50 μM E-Z Link Amine-PEO2-Biotin, Pierce) was injected over all cells for 1 minute at 20 μl/min as a block to reduce non-specific binding. One flow cell was used as a reference cell and a different SHAL was immobilized on each of the three other cells.
Experiments measuring the binding of HLA-DR10 to the SHALs were carried out at a flow rate of 30 μl/minute in PBS pH7.4 running buffer using all 4 flow cells. HLA-DR10 isolated from Raji cells (Rose et al. (1996) Cancer Immunol Immunother 43:26-30) was diluted in running buffer to a final concentration ranging from […] and a series of concentrations were run randomly in triplicate. Protein was injected for 3 minutes, allowed to dissociate for 5 minutes followed by regeneration of the surface using a 1 minute injection of 0.1% sodium dodecylsulfate (SDS) followed by a washing step with a 2 minute injection of running buffer. The data, which were double referenced by subtracting the blank reference surface and an average of 5 blank injections, were processed using the program SCRUBBER (University of Utah).
Using homology modeling, HLA-DR amino acid residues critical for Lym-1 binding were mapped on a 3-D model of the HLA-DR10ß subunit (Balhorn et al, (2007) Clin. Cancer Res., 13(Suppl. 18): S5621-S5628). Cavities within the Lym-1 epitopic surface of the protein were identified using SPHGEN (Kuntz et al. (1982) J. Mol Biol. 161: 269-288; Desjarlais et al. (1988) J. Med. Chem., 31: 722-729). After computational ligand docking for each of the cavities, a combination of NMR spectroscopy, surface plasmon resonance (BIAcore 3000; Biacore, Piscataway, N.J.) and competitive binding experiments were used to confirm ligand binding to HLA-DR10 protein. […]

[4] = tested on: cultured cell lines containing HLA-DR10; details: shown previously (Balhorn et al. 2007); cited from earlier work
[5] = tested on: HLA-DR10; assay: NMR screening of ligands for binding to HLA-DR10; parameters: species or system human
Description: Determination of ligand binding and orientation can also be determined using a number of different methods. These include, but are not limited to Saturation Transfer Difference nuclear magnetic resonance (Mayer and Meyer (1999) Angew Chem Int Edit, 38:1784-1788) and Transfer NOE (trNOE) nuclear magnetic resonance (NMR) spectroscopy (Henrichsen et al. (1999) Angew Chem Int Edit., 38:98-102; Cosman et al. (2002) Chem Res Toxicol 15: 1218-1228). These methods can be used to screen the ligands in mixtures of several to several hundred per experiment to determine which ligands bind to the target molecule(s) e.g., under biologically relevant conditions and to determine which ligands bind to the same (or different) sites. Diffusion experiments (Lin et al. (1997) J. Organic Chem., 62: 8930-8931) can also be performed with those ligands that have been determined to bind in order to assess the relative binding affinity of each compound.
As a result of the computational docking, 30 compounds from both the Site 1 and Site 2 lists were experimentally screened by NMR.
A number of cell surface protein receptors have been identified that distinguish malignant cancer cells from their normal counterparts. […] This has led to the development of a variety of antibody-based, receptor-specific reagents conjugated to radioisotopes for use in radio-immunotherapy. […]

## CC(C)C(NS(=O)(=O)c1ccc(N=Nc2ccc(N(C)C)cc2)cc1)C(=O)NC(CCCCNC(=O)COCCOCCNC(=O)c1ccc(NC(=O)C(CCCNC(=N)N)NC(=O)c2ccccc2)cc1)C(=O)NCCOCCOCC(=O)NCCOCCOCC(=O)NCCOCCOCC(=O)NCCCCC(NC(=O)COCCOCCNC(=O)COCCOCCNC(=O)COCCOCCNC(=O)C(CCCCNC(=O)COCCOCCNC(=O)c1ccc(NC(=O)C(CCCNC(=N)N)NC(=O)c2ccccc2)cc1)NC(=O)C(NS(=O)(=O)c1ccc(N=Nc2ccc(N(C)C)cc2)cc1)C(C)C)C(=O)NC(CCCCNC(=O)CN1CCN(CC(=O)O)CCN(CC(=O)O)CCN(CC(=O)O)CC1)C(=O)O (centres unmarked) [(DvLPBaPPP)2LLDo]
[1]
  SHAL binding, uptake and localization in Raji cells: intracellular binding; also recorded: Nuclear staining was not observed; also recorded: taken up and internalized
[2]; 5.3 pmoles of 111In-labeled SHAL, unwashed cell pellets
  pmoles SHAL Bound/10^6 cells unwashed: 0.568 ± 0.091 pmoles SHAL Bound/10^6 cells
[2]; 5.3 pmoles of 111In-labeled SHAL, washed two times with BSA/buffer
  pmoles SHAL Bound/10^6 cells Washed: 0.263 ± 0.000 pmoles SHAL Bound/10^6 cells
[2]; Raji cells, after washing
  proportion of SHAL retained by the cells after washing: ~46%
[2]; after washing two times
  Percent SHAL Retained: 46%
[3]
  Kd: ~21 nM
[4]
  selective binding to HLA-DR10 expressing cell lines: bind selectively to HLA-DR10 expressing cell lines

## Nc1ccc(Oc2ccc(C(=O)c3ccc(C(=O)c4ccc(Oc5ccc(N)cc5)cc4)cc3)cc2)cc1 [1,4-phenylenebis[[4-(4-aminophenoxy)phenyl]methanone]]
[5]
  binding to HLA-DR10 in subsequent screenings: precipitated onto the target protein
